Results on 5 compounds are retold here after patent US20260224688A1, “HELPER LIPIDS FOR NUCLEIC ACID DELIVERY” (SANOFI PASTEUR INC., priority 2023, published 2026).

Each structure is given as a SMILES string.

Data set [1] in a line: Dynamic light scattering of lipid nanoparticles (size, PDI). The format is physicochemical. Here is the method:
(§1) Lipid nanoparticle formulations 3 were prepared by Process A at a molar ratio of 40:1.5:30:28.5 (Cationic Lipid: DMG-PEG2000: Cholesterol: Helper Lipid) with the cationic lipids and helper lipids disclosed in the tables below. The Polydispersity Index (Pdl) of lipid nanoparticles can be determined by diluting the formulation in 10% trehalose at about 0.1 mg/ml mRNA concentration and then measuring the size on Malvern zetasizer. The lipid nanoparticle size can be obtained with Malvern Zetasizer Nano-ZS.
Dynamic light scattering (DLS) measurements were performed using a Malvern Instruments Zetasizer with a backscattering detector angle of 173° and a 4-mW, 633-nm He—Ne laser (Worcestershire, UK). The samples were analyzed by diluting in 10% Trehalose and measuring the size and Poly dispersity Index (PDI) in an optical grade polystyrene cuvette.

The nature of data set [2]: mRNA encapsulation efficiency of lipid nanoparticles. The format is physicochemical. Particulars: for Encapsulation efficiency (EE): LNP with cationic lipid CL-A.
Description: In embodiments, the lipid nanoparticle encapsulates a nucleic acid, optionally an mRNA encoding a peptide or protein. In embodiments, the lipid nanoparticle encapsulates an mRNA encoding a peptide or protein, optionally for use in a vaccine. In embodiments, the peptide is an antigen. As used herein, the phrase “encapsulation percentage” refers to the fraction of therapeutic agent (e.g. mRNA) that is effectively encapsulated within a liposomal-based vehicle (e.g. a lipid nanoparticle) relative to the initial fraction of therapeutic agent present in the lipid phase. In embodiments, the lipid nanoparticles have an encapsulation percentage for mRNA of at least 50%. In embodiments, the lipid nanoparticles have an encapsulation percentage for mRNA of at least 55%. In embodiments, the lipid nanoparticles have an encapsulation percentage for mRNA of at least 60%. In embodiments, the lipid nanoparticles have an encapsulation percentage for mRNA of at least 65%. In embodiments, the lipid nanoparticles have an encapsulation percentage for mRNA of at least 70%. In embodiments, the lipid nanoparticles have an encapsulation percentage for mRNA of at least 75%. In embodiments, the lipid nanoparticles have an encapsulation percentage for mRNA of at least 80%. In embodiments, the lipid nanoparticles have an encapsulation percentage for mRNA of at least 85%. In embodiments, the lipid nanoparticles have an encapsulation percentage for mRNA of at least 90%. In embodiments, the lipid nanoparticles have an encapsulation percentage for mRNA of at least 95%. In embodiments, the encapsulation percentage is calculated by performing the Ribogreen assay (Invitrogen) with and without the presence of 0.1% Triton-X 100.
The lipid nanoparticles in the examples of the present invention were formulated using Process A of WO 2018/089801 (see, e.g., Example 1 and FIG. 1 of WO 2018/089801). Process A (“A”) relates to a conventional method of encapsulating mRNA by mixing mRNA with a mixture of lipids, without first pre-forming the lipids into lipid nanoparticles. In an exemplary process, an ethanolic solution of a mixture of lipids (cationic lipid, phosphatidylethanolamine, cholesterol, and polyethylene glycol-lipid) at a fixed lipid to mRNA ratio were combined with an aqueous buffered solution of target mRNA at an acidic pH under controlled conditions to yield a suspension of uniform LNPs. After ultrafiltration and diafiltration into a suitable diluent system, the resulting nanoparticle suspensions were diluted to final concentration, filtered, and stored frozen at −80° C. until use.
as §1

Data set [3] concerns hEPO. The data set is described as follows: IM EPO expression of LNPs containing new helper lipids (hEPO in serum by ELISA). In kind it is in vivo, female BALB/cJ mice. The settings on record: single IM injection; for 24-h EPO: serum 24 hours post injection. Here is the method:
Lipid nanoparticles were formulated containing the four lipid components shown below at a ratio of 40:30:28.5:1.5, complexed with a hEPO messenger RNA. • Cationic lipid, 40 mol % • Phospholipid (PEA) helper lipid, 30 mol % • Cholesterol, 28.5 mol % • DMG-PEG-2K (1,2-dimyristoyl-rac-glycero-3-methoxypolyethyleneglycol), 1.5 mol % The cationic lipid component of each formulation was selected from the compounds in the table below: […]
EPO expression studies were conducted with female BALB/cJ mice 6-8 weeks of age. Mice were dosed with […] EPO mRNA in 30 μL of LNPs by a single intramuscular (IM) injection into the gastrocnemius leg muscle. Blood samples were taken 6 and 24 hours post injection and hEPO levels were measured in the blood serum of the mice using an ELISA assay according to the manufacture's protocol. WO2022/099003 A1 also describes an in vivo assay for intramuscular administration (e.g. on page 46, paragraph [00206]).
For orientation: In an ELISA, binding on a coated surface is turned into a signal by an enzyme label.

Data set [4] has as its system hEPO. The data set is described as follows: IV EPO expression of LNPs (tail vein injection). In kind it is in vivo, female BALB/cJ mice. The settings on record: cationic lipid CL-0137, helper lipid 30 mol %; 0.017 μg EPO mRNA tail vein; 6 hours; DOPE = 1. The procedure: Lipid nanoparticles were formulated containing the four lipid components shown below at a ratio of 40:30:28.5:1.5, complexed with a hEPO messenger RNA. • Cationic lipid CL-0137, 40 mol % • Helper lipid, 30 mol % • Cholesterol, 28.5 mol % • DMG-PEG-2K (1,2-dimyristoyl-rac-glycero-3-methoxypolyethyleneglycol), 1.5 mol %
EPO expression studies were conducted with female BALB/cJ mice 6-8 weeks of age. Mice were dosed with 0.017 μg EPO mRNA LNPs in a volume of 5 ul by a single tail vein injection. Blood samples were taken 6 hours post injection and hEPO levels were measured in the blood serum of the mice using an ELISA assay according to the manufacture's protocol.

Where [5] appears, read: LNP with cationic lipid CL-A, hEPO mRNA, 40:30:28.5:1.5.
Where [6] appears, read: CL-B LNP, serum 6 hours post injection.
Where [7] appears, read: CL-A LNP, 0.1 μg EPO mRNA in 30 μL, serum 6 hours post injection.

In the case of `CCCCCCCCC(CCCCCCCC)OC(=O)CCCCCCC(=O)OCC(COP(=O)(O)OCCN)OC(=O)CCCCCCC(=O)OC(CCCCCCCC)CCCCCCCC` (stereo not shown) [Compound 6, 2-Aminoethyl (2,3-bis((8-(heptadecan-9-yloxy)-8-oxooctanoyl)oxy)propyl) phosphate], in data set [1] (LNP with cationic lipid CL-A), the “Polydispersity Index (PDI)” value is reported as 0.066. For the same compound, the Size in data set [1] (setting [5]) stood at 159 nm; in data set [1] (LNP with cationic lipid CL-B), 119.9 nm; in data set [1] (LNP with cationic lipid CL-C), 108.9 nm; in data set [1] (LNP with cationic lipid CL-D) it was 131.5 nm. Moreover, the PDI in data set [1] (LNP with cationic lipid CL-B) worked out at 0.049; in data set [1] (LNP with cationic lipid CL-C), 0.037; in data set [1] (LNP with cationic lipid CL-D), 0.063. The “Encapsulation efficiency (EE)” value in data set [2] is reported as 90%. Further, the EE in data set [2] (LNP with cationic lipid CL-B), in data set [2] (LNP with cationic lipid CL-C) and in data set [2] (LNP with cationic lipid CL-D) was 94% throughout. Also, the “6-h EPO” value in the data set with hEPO [3] (setting [6]) is reported as 28.4 ng/mL; in the data set on hEPO [3] (CL-C LNP), 27.1 ng/mL; in the data set on hEPO [3] (CL-C LNP, (6-h)), 39.9 ng/mL. For the same compound, in the data set on hEPO [3] (CL-B LNP), the “24-h EPO” value is 16.2 ng/mL. The “Normalized Mean IV EPO expression” value in the data set on hEPO [4] was determined as 2.67.
Take `CCCCCCCCC(CCCCCCCC)C(=O)OCCCCCCC(=O)OCC(COP(=O)(O)OCCN(C)C)OC(=O)CCCCCCOC(=O)C(CCCCCCCC)CCCCCCCC` (stereo not shown) [Compound 18, ((3-(((2-(Dimethylamino)ethoxy)(hydroxy)phosphoryl)oxy)propane-1,2-diyl)bis(oxy))bis(7-oxoheptane-7,1-diyl) bis(2-octyldecanoate)]: the “Polydispersity Index (PDI)” value in data set [1] (LNP with cationic lipid CL-A) came out at 0.072. For the same compound, the Size came out at 155 nm in data set [1] (setting [5]), 117.5 nm in data set [1] (LNP with cationic lipid CL-B) and 117.5 nm in data set [1] (LNP with cationic lipid CL-C). For the same compound, the PDI in data set [1] (LNP with cationic lipid CL-B) and in data set [1] (LNP with cationic lipid CL-C) was 0.104 in each case. For the same compound, the “Encapsulation efficiency (EE)” value in data set [2] is listed as 93%. Moreover, the EE in data set [2] (LNP with cationic lipid CL-B) and in data set [2] (LNP with cationic lipid CL-C) was 89% throughout. Besides, the “6-h EPO” value came out at 30.1 ng/mL in the data set with hEPO [3] (setting [7]); 23.7 ng/mL with hEPO [3] (setting [6]); 28.8 ng/mL with hEPO [3] (CL-C LNP, (6-h)). In addition, the “Normalized Mean IV EPO expression” value in the data set on hEPO [4] is 4.68.
As for `CCCCCCCCC(CCCCC)COC(=O)CCC(=O)OCC(COP(=O)(O)OCCN)OC(=O)CCC(=O)OCC(CCCCC)CCCCCCCC` (stereo not shown) [Compound 4, O,O′-(3-(((2-Aminoethoxy)(hydroxy)phosphoryl)oxy)propane-1,2-diyl) bis(2-pentyldecyl) disuccinate], the “Polydispersity Index (PDI)” value in data set [1] (LNP with cationic lipid CL-A) stood at 0.048. Also, the Size in data set [1] (setting [5]) is listed as 125 nm; in data set [1] (LNP with cationic lipid CL-B), 104.7 nm; in data set [1] (LNP with cationic lipid CL-C) it was 109.5 nm. In addition, the results for the PDI in data set [1] (LNP with cationic lipid CL-B) and in data set [1] (LNP with cationic lipid CL-C) were 0.112 and 0.123, respectively. The “Encapsulation efficiency (EE)” value in data set [2] turned out to be 85%. Moreover, the EE in data set [2] (LNP with cationic lipid CL-B) worked out at 86%; in data set [2] (LNP with cationic lipid CL-C), 87%. In addition, the “6-h EPO” value is 13.7 ng/mL in the data set on hEPO [3] (setting [6]); 20.1 ng/mL in the data set on hEPO [3] (CL-C LNP); 22.3 ng/mL in the data set on hEPO [3] (CL-C LNP, (6-h)). In the data set on hEPO [3] (CL-B LNP), the “24-h EPO” value is recorded as 11.6 ng/mL. Besides, the “Normalized Mean IV EPO expression” value in the data set with hEPO [4] is on record as 2.38.
Take `CCCCCCCCOC(=O)CCCCCCCC(=O)OC(COC(=O)CCCCCCC(=O)OC(CCCCCCCC)CCCCCCCC)COP(=O)(O)OCCN(C)C` (stereo not shown) [Compound 11, 1-(1-(((2-(Dimethylamino)ethoxy)(hydroxy)phosphoryl)oxy)-3-((8-(heptadecan-9-yloxy)-8-oxooctanoyl)oxy)propan-2-yl) 9-octyl nonanedioate]: the “Polydispersity Index (PDI)” value in data set [1] (LNP with cationic lipid CL-A) was 0.068. In addition, the Size came to 173 nm in data set [1] (setting [5]), 102.1 nm in data set [1] (LNP with cationic lipid CL-B), 85.5 nm in data set [1] (LNP with cationic lipid CL-C) and 96.6 nm in data set [1] (LNP with cationic lipid CL-D). The PDI in data set [1] (LNP with cationic lipid CL-B) turned out to be 0.066; in data set [1] (LNP with cationic lipid CL-C), 0.119; in data set [1] (LNP with cationic lipid CL-D), 0.121. The “Encapsulation efficiency (EE)” value in data set [2] is reported as 94%. Also, the EE in data set [2] (LNP with cationic lipid CL-B) turned out to be 88%; in data set [2] (LNP with cationic lipid CL-C), 86%; in data set [2] (LNP with cationic lipid CL-D) it was 93%. Moreover, the “6-h EPO” value was found to be 19.251 ng/mL in the data set on hEPO [3] (setting [7]); 5.2 ng/mL in the data set with hEPO [3] (setting [6]); 7.4 ng/mL with hEPO [3] (CL-C LNP); 8.7 ng/mL with hEPO [3] (CL-C LNP, (6-h)). In addition, the figures for the “24-h EPO” value with hEPO [3] (CL-A LNP) and in the data set on hEPO [3] (CL-B LNP) were 11.25 ng/mL and 4.8 ng/mL, respectively. In the data set on hEPO [4], the “Normalized Mean IV EPO expression” value stood at 1.17.
With `CCCCCCCCC(CCCCCCCC)OC(=O)CCCCCCCC(=O)OCC(COP(=O)(O)OCCN(C)C)OC(=O)CCCCCCCC(=O)OC(CCCCCCCC)CCCCCCCC` (stereo not shown) [Compound 16, O′^1,O^1-(3-(((2-(Dimethylamino)ethoxy)(hydroxy)phosphoryl)oxy)propane-1,2-diyl) 9-di(heptadecan-9-yl) di(nonanedioate)], the “Polydispersity Index (PDI)” value in data set [1] (LNP with cationic lipid CL-A) is reported as 0.052. In addition, the Size in data set [1] (setting [5]) is on record as 128 nm; in data set [1] (LNP with cationic lipid CL-B) it was 108.1 nm; in data set [1] (LNP with cationic lipid CL-C), 102.7 nm. Besides, the results for the PDI in data set [1] (LNP with cationic lipid CL-B) and in data set [1] (LNP with cationic lipid CL-C) were 0.069 and 0.077, respectively. Further, in data set [2], the “Encapsulation efficiency (EE)” value is 95%. For the same compound, the EE in data set [2] (LNP with cationic lipid CL-B) worked out at 94%; in data set [2] (LNP with cationic lipid CL-C) it was 91%. Moreover, the “6-h EPO” value in the data set with hEPO [3] (setting [7]) came to 17.4 ng/mL; in the data set on hEPO [3] (setting [6]) it was 32.1 ng/mL; in the data set on hEPO [3] (CL-C LNP, (6-h)) it was 9.7 ng/mL. In the data set on hEPO [4], the “Normalized Mean IV EPO expression” value is listed as 1.59.
